Source: ChEMBL document CHEMBL4831531, “Mangostanin Derivatives as Novel and Orally Active Phosphodiesterase 4 Inhibitors for the Treatment of Idiopathic Pulmonary Fibrosis with Improved Safety” (J Med Chem, 2021)
In brackets after ≈: the same amount, converted by molar mass. Activity calls are given as the source filed them. No cut-off for these calls is given here.

How the values were obtained:
[1] = biological target: 3',5'-cyclic-AMP phosphodiesterase 4B (Homo sapiens, UniProt Q07343); assay: Inhibition of PDE4B2 (152-487) (unknown origin) expressed in Escherichia coli BL21 assessed as using [3H]-cAMP as substrate measured for 15 mins by liquid scintillation counting analysis
3',5'-cyclic-AMP phosphodiesterase 4B, sequence (Q07343 whole entry): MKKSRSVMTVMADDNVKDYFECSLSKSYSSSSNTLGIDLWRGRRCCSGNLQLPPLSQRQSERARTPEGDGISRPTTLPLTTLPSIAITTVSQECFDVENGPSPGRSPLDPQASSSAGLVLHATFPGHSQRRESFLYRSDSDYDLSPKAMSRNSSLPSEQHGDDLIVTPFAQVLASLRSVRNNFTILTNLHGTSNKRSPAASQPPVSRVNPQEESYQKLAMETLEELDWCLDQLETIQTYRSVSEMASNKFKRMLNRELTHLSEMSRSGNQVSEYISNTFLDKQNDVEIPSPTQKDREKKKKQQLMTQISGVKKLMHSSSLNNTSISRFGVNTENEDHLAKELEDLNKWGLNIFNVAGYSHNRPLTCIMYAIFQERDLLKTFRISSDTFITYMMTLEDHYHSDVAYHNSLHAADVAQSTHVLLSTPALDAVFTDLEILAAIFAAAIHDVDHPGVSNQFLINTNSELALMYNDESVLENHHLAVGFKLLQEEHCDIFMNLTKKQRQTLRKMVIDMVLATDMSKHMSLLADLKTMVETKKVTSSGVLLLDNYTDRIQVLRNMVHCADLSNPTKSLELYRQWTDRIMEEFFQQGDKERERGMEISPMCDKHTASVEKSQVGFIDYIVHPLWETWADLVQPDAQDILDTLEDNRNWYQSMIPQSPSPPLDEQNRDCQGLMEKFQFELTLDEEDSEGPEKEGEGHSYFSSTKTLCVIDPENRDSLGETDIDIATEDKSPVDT

[2] = biological target: cGMP-inhibited 3',5'-cyclic phosphodiesterase 3A (Homo sapiens, UniProt Q14432); assay: Inhibition of PDE3A (679-1087) (unknown origin) expressed in Escherichia coli BL21 assessed as using [3H]-cAMP as substrate measured for 15 mins by liquid scintillation counting analysis
cGMP-inhibited 3',5'-cyclic phosphodiesterase 3A, sequence (Q14432 whole entry): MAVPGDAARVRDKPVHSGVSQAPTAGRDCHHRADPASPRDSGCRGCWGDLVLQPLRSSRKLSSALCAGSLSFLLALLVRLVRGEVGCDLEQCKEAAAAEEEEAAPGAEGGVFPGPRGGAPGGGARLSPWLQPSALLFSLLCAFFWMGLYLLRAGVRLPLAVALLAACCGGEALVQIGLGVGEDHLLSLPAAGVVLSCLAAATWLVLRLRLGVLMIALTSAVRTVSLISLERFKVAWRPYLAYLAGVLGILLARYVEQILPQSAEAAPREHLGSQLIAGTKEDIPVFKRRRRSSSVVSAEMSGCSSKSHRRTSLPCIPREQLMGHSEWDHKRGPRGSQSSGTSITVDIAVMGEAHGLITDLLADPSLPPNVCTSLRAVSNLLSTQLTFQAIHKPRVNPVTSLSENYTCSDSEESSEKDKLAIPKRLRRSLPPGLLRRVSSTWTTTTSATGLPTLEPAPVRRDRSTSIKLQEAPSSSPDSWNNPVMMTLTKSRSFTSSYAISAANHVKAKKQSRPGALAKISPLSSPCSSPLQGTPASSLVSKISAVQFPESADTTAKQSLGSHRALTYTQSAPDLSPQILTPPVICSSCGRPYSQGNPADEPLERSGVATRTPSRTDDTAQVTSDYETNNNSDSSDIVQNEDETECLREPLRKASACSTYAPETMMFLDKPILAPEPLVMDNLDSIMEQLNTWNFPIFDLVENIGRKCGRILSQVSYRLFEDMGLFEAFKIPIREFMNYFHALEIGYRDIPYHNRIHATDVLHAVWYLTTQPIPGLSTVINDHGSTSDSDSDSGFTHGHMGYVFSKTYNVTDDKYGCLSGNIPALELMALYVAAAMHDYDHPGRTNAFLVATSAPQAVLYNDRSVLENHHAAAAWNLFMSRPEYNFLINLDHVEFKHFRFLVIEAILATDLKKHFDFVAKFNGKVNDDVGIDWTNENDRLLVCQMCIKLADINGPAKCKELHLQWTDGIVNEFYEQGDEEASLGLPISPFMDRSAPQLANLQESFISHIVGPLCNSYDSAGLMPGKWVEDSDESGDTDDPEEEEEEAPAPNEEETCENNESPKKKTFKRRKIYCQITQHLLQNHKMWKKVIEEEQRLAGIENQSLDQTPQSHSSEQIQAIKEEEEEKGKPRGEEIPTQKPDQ

[3] = biological target: cGMP-specific 3',5'-cyclic phosphodiesterase (Homo sapiens, UniProt O76074); assay: Inhibition of PDE5A1 (535-860) (unknown origin) expressed in Escherichia coli BL21 assessed as using […] as substrate measured for 15 mins by liquid scintillation counting analysis
[4] = biological target: High affinity cAMP-specific and IBMX-insensitive 3',5'-cyclic phosphodiesterase 8A (Homo sapiens, UniProt O60658); assay: Inhibition of PDE8A1 (480-828) (unknown origin) expressed in Escherichia coli BL21 assessed as using [3H]-cAMP as substrate measured for 15 mins by liquid scintillation counting analysis
High affinity cAMP-specific and IBMX-insensitive 3',5'-cyclic phosphodiesterase 8A, sequence (O60658 whole entry): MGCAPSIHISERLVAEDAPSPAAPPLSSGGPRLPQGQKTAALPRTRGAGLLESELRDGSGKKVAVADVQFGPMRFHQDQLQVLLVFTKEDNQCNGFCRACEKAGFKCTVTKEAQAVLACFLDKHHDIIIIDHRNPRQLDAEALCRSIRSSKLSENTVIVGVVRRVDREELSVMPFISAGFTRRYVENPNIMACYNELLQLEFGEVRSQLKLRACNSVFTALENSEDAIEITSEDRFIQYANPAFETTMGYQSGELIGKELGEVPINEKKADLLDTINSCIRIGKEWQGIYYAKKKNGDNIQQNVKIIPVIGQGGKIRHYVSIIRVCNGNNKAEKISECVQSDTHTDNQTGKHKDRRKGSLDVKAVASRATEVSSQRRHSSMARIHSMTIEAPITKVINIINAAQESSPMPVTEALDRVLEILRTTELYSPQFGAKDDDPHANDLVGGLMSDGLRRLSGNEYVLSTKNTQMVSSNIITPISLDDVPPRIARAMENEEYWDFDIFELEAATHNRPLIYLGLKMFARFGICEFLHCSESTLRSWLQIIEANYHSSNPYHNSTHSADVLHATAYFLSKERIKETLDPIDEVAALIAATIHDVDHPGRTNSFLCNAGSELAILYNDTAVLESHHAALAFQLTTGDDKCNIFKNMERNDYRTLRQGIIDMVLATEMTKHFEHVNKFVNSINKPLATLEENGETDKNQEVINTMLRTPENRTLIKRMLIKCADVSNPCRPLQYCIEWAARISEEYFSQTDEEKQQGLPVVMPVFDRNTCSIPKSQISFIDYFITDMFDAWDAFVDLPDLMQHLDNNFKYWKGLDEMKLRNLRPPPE

[5] = Tmax in Sprague-Dawley rat at 10 mg/kg, po; assay type: ADME, organism-based; details: in vivo
[6] = Cmax in Sprague-Dawley rat at 5 mg/kg, po; assay type: ADME, organism-based; design: route oral, dose 5 mg/kg; details: in vivo
[7] = AUC (0 to t) in Sprague-Dawley rat at 10 mg/kg, po; assay type: ADME, organism-based; design: dose 10 mg/kg; details: in vivo
[8] = AUC (0 to infinity) in Sprague-Dawley rat at 5 mg/kg, po; assay type: ADME, organism-based; design: route oral, time infinity, dose 5 mg/kg; details: in vivo
[9] = AUC (0 to infinity) in Sprague-Dawley rat at 10 mg/kg, po; assay type: ADME, organism-based; design: route oral, time infinity, dose 10 mg/kg; details: in vivo
[10] = Acute toxicity in mouse at 1.5 g/Kg, po; details: in vivo, 1500 mg/kg
[11] = Solubility of the compound in deionized water; assay type: physicochemical
Rattus norvegicus [12] = assay: Anti-idiopathic pulmonary fibrotic activity in bleomycin-induced Sprague-Dawley rat model assessed as reversal of respiratory rate at 10 mg/kg, po treated for 28 consecutive days relative to control; assay type: functional, organism-based
Rattus norvegicus [13] = assay: Anti-idiopathic pulmonary fibrotic activity in bleomycin-induced Sprague-Dawley rat model assessed as reversal of enhanced pause at 10 mg/kg, po treated for 28 consecutive days relative to control; assay type: functional, organism-based
Rattus norvegicus [14] = assay: Anti-idiopathic pulmonary fibrotic activity in bleomycin-induced Sprague-Dawley rat model assessed as decrease in alpha-smooth muscle actin protein expression of lungs at 10 mg/kg, po treated for 28 consecutive days by Western blot analysis; assay type: functional, organism-based
Rattus norvegicus [15] = assay: Anti-idiopathic pulmonary fibrotic activity in bleomycin-induced Sprague-Dawley rat model assessed as decrease in fibronectin expression of lungs at 10 mg/kg, po treated for 28 consecutive days by Western blot analysis; assay type: functional, organism-based
Rattus norvegicus [16] = assay: Anti-inflammatory activity in bleomycin-induced idiopathic pulmonary fibrotic activity Sprague-Dawley rat model assessed as decrease in NO production in lungs at 10 mg/kg, po treated for 28 consecutive days; assay type: functional, organism-based

COc1c(OCc2ccc(F)cc2)cc2oc3cc4c(c(OC/C=C/C(=O)O)c3c(=O)c2c1CC=C(C)C)C=CC(C)(C)O4
IC50 [1]: 140 nM | IC50 [2]: > 10000 nM | IC50 [3]: 93 nM | IC50 [4]: 710 nM | Tmax [5]: 1 h | Cmax [6]: 3850 ng/mL | AUC(0-t) [7]: 2090 ng·h/mL | AUC(0-inf) [8]: 8460 ng·h/mL | AUC(0-inf) [9]: 2110 ng·h/mL | Activity [10]: Non-Toxic | solubility [11]: 1.1 µg/mL (≈ 1.83 µM) | Activity (Rattus norvegicus [12]): Active | Activity (Rattus norvegicus [13]): Active | Activity (Rattus norvegicus [14]): Active | Activity (Rattus norvegicus [15]): Active | Activity (Rattus norvegicus [16]): Active
